In data set [1] the target is T1, Dihydrofolate reductase (Homo sapiens, UniProt P00374).
T1 sequence (P00374 whole entry): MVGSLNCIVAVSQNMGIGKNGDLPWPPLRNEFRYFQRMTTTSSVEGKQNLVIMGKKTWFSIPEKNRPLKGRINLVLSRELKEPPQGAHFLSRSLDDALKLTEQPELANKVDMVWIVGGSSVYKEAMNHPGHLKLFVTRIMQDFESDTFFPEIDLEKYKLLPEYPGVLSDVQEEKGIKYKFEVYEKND
Put plainly: Inhibition of dihydrofolate reductase (unknown origin) using dihydrofolic acid as substrate by spectrophotometry.

The test system of data set [2] is Enterococcus faecalis. Put plainly: Antibacterial activity against Streptococcus faecalis ATCC 8043. It is filed as organism-based.
For data set [3], the system named is Enterococcus faecalis. Put plainly: Antibacterial activity against Streptococcus faecalis ATCC 8043 at 1 ug/ml. The format is organism-based.

SMILES strings stand for the structures.

What is called IC50 is the concentration needed to halve the response being measured. Lower therefore signals inhibition by little substance.

`CC1=Nc2c(O)nc(N)nc2OC1C` (configuration not stated) came in with an IC50 in data set [1] of 377 µM. The Activity entry in data set [2] is “Toxic”. For `Nc1nc(O)c2c(n1)OC(c1ccccc1)C(c1ccccc1)=N2` (configuration not stated), the Activity result in data set [2] was “Toxic”. Same read-out and setting: the result for `CC1Oc2nc(N)nc(O)c2N=C1c1ccccc1` (configuration not stated) reads “Toxic”. Take `CC1=Nc2c(O)nc(N)nc2OC1c1ccccc1` (configuration not stated): inhibition in data set [1] was half-maximal at 740 µM (IC50). For the same molecule, the Activity entry in data set [2] is “Toxic”. Taken in the same sequence, the figures for `Nc1nc(O)c2c(n1)OCC(c1ccccc1)=N2` were 57 µM and “Toxic”. Taken in the same sequence, the figures for `CC1=Nc2c(O)nc(N)nc2OC1` were 242 µM and “Toxic”. `Nc1nc(O)c2c(n1)OCC(Cc1ccccc1)=N2`: the Activity result in data set [2] is “Toxic”. In the case of `Nc1nc(O)c2c(n1)OCC(CCc1ccccc1)=N2`, in data set [2], the Activity entry is “Toxic”. On the same count and under the same terms, the result for `Nc1nc(O)c2c(n1)OCC(CCCc1ccccc1)=N2` reads “Toxic”; that for `Nc1nc(O)c2c(n1)OCC(CCCCc1ccccc1)=N2`, “Toxic”. Molecule `CCCCCC1=Nc2c(O)nc(N)nc2OC1` yielded an IC50 in data set [1] of 11 µM. Further, the Activity result in data set [2] is “Toxic”. Taken in the same sequence, the figures for `CC1=Nc2c(N)nc(N)nc2OC1C` (configuration not stated) were 903 µM and “Toxic”.

With `Nc1nc(N)c2c(n1)OC(c1ccccc1)C(c1ccccc1)=N2` (configuration not stated), in data set [2], the Activity entry was “Toxic”. With `Nc1nc(N)c2c(n1)OCC(c1ccccc1)=N2`, in data set [1], the IC50 was found to be 168 µM. In data set [2], the Activity entry is “Toxic”. Turning to `CN(Cc1cnc2nc(N)nc(N)c2n1)c1ccc(C(=O)N[C@@H](CCC(=O)O)C(=O)O)cc1` [METHOTREXATE], the Activity entry in data set [3] was “Toxic”.
